From patent publication US9598391B2, “Substituted chroman compounds as calcium sensing receptor modulators” (LUPIN LIMITED, priority 2012, dated 2017)
Where a name gives a salt, the structure may show the parent alone.

target: T1, Calcium Sensing Receptor (CaSR) (Homo sapiens, UniProt P41180); experiment: In-vitro assay of calcimimetics through modulation of Calcium Sensing Receptor (intracellular calcium, FLIPR); format: cell-based; settings: HEK293 cells stably expressing hCaSR, increase in intracellular calcium, Fluo4NW dye, 0.3 mM CaCl2, 8-point assay, read-out: EC50 Range
T1 construct: expressed in transfected cells
T1 sequence (P41180 20-1078): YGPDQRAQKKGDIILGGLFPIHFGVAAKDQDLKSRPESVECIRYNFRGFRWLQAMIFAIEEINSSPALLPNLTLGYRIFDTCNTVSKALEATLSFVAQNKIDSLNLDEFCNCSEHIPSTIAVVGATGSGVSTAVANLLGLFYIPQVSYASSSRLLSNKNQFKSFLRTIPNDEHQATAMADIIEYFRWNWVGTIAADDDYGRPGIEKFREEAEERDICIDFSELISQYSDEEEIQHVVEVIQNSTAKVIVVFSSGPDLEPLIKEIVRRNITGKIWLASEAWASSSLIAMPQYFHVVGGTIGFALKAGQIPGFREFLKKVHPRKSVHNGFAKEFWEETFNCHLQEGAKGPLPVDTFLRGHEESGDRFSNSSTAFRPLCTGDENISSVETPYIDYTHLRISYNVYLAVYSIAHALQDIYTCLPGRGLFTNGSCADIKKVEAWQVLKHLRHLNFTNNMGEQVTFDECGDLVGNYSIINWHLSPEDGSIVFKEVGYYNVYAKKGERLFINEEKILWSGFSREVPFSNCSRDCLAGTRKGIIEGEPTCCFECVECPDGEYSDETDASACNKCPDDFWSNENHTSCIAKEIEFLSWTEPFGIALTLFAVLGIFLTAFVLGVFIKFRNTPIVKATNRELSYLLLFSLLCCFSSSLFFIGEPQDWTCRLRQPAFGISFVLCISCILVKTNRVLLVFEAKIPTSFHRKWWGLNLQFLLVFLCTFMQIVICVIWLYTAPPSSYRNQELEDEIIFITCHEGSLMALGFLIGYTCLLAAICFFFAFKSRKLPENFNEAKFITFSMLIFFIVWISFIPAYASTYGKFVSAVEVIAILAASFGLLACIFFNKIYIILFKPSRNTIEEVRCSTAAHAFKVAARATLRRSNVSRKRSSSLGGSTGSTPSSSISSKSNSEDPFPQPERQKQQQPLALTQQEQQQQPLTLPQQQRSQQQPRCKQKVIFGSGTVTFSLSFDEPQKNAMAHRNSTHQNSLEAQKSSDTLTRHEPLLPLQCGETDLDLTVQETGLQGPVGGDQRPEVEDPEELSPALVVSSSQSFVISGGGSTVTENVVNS
Protocol: In-vitro assay method of Calcimimetics through modulation of Calcium Sensing Receptor (CaSR):
The ability of the compounds to modulate Calcium sensing receptor is determined by measuring an increase in intracellular calcium [Ca^2+]i. Stably transfected HEK293 cells expressing hCaSR_pTriEx-3 hygro vector are developed. Cells are grown overnight on a 96-well plate to 80% confluency in Ham's F12 containing 20% FBS at 37° C., 5% CO2. Subsequently, cells are washed extensively with 20 mM HEPES buffer containing 126 mM […], 1 mM MgCl2 and 4 mM KCl to remove serum components that might interfere with the assay. Cells are loaded with calcium sensing Fluo4NW dye in HEPES base buffer containing 0.1% BSA and 1 mg/ml glucose for 30 minutes to measure changes in intracellular calcium. The activities of the compounds are measured in FLIPR using 0.3 mM CaCl2 in 20 mM HEPES base buffer. The effectiveness of the compound to modulate receptor activity is determined by calculating the EC50 responses for that compound in an 8-point assay and plotted using GraphPad Prism 5.

EC50 [nM] | SMILES
< 20 | Cc1ccc([C@@H]2C[C@H](CN[C@H](C)c3cccc4ccccc34)Oc3ccccc32)c(C)c1C(=O)O [Example 67, 2,6-Dimethyl-3-((2R,4S)-2-((((R)-1-(naphthalen-1-yl)ethyl)amino)methyl)chroman-4-yl)benzoic acid hydrochloride]
< 20 | C[C@@H](NC[C@H]1C[C@@H](c2ccc(OCC(=O)O)cc2)c2ccccc2O1)c1cccc2ccccc12 [Example 105b, 2-(4-((2R,4S)-2-((((R)-1-(Naphthalen-1-yl)ethyl)amino)methyl)chroman-4-yl)phenoxy)acetic acid hydrochloride]
< 20 | Cc1ccc([C@@H]2C[C@H](CN[C@H](C)c3cccc4ccccc34)Oc3ccccc32)cc1OCC(=O)O [Example 91, 2-(2-Methyl-5-((2R,4S)-2-((((R)-1-(naphthalen-1-yl)ethyl)amino)methyl)chroman-4-yl)phenoxy)acetic acid hydrochloride]
< 20 | Cc1c(C(=O)O)ccc(F)c1[C@@H]1C[C@H](CN[C@H](C)c2cccc3ccccc23)Oc2ccccc21 [Example 81b, 4-Fluoro-2-methyl-3-((2R,4R)-2-((((R)-1-(naphthalen-1-yl)ethyl)amino)methyl)chroman-4-yl)benzoic acid hydrochloride]
50 to 200 | C[C@@H](NC[C@H]1C[C@H](c2ccc(C(C)(C)C(=O)O)cc2)c2ccccc2O1)c1cccc2ccccc12 [Example 108a, 2-Methyl-2-(4-((2R,4R)-2-((((R)-1-(naphthalen-1-yl)ethyl)amino)methyl)chroman-4-yl)phenyl)propanoic acid hydrochloride]
< 20 | Cc1cc(C(=O)O)cc([C@@H]2C[C@H](CN[C@H](C)c3cccc4ccccc34)Oc3ccccc32)c1 [Example 75, 3-Methyl-5-((2R,4S)-2((((R)-1-(naphthalen-1-yl)ethyl)amino)methyl)chroman-4-yl)benzoic acid hydrochloride]
50 to 200 | C[C@@H](NC[C@H]1C[C@@H](c2ccc(C(C)(C)C(=O)O)cc2)c2ccccc2O1)c1cccc2ccccc12 [Example 108b, 2-Methyl-2-(4-((2R,4S)-2-((((R)-1-(naphthalen-1-yl)ethyl)amino)methyl)chroman-4-yl)phenyl)propanoic acid hydrochloride]
< 20 | Cc1ccc([C@@H]2C[C@H](CN[C@H](C)c3ccc(F)c4ccccc34)Oc3ccccc32)cc1C(=O)O [Example 119b, 5-((2R,4S)-2-((((R)-1-(4-Fluoronaphthalen-1-yl)ethyl)amino)methyl)chroman-4-yl)-2-methyl benzoic acid hydrochloride]
< 20 | C[C@@H](NC[C@H]1C[C@@H](c2ccc(F)c(OCC(=O)O)c2)c2ccccc2O1)c1cccc2ccccc12 [Example 93b, 2-(2-Fluoro-5-((2R,4S)-2-((((R)-1-(naphthalen-1-yl)ethyl)amino)methyl)chroman-4-yl)phenoxy)acetic acid hydrochloride]
< 20 | C[C@@H](NC[C@H]1C[C@@H](c2ccc(C(F)(F)F)c(C(=O)O)c2)c2ccccc2O1)c1cccc2ccccc12 [Example 83, 5-((2R,4S)-2-((((R)-1-(Naphthalen-1-yl)ethyl)amino)methyl)chroman-4-yl)-2-(trifluoromethyl)benzoic acid hydrochloride]
< 20 | COc1c(C(=O)O)cccc1[C@@H]1C[C@H](CN[C@H](C)c2cccc3ccccc23)Oc2ccccc21 [Example 89b, 2-Methoxy-3-((2R,4R)-2-((((R)-1-(naphthalen-1-yl)ethyl)amino)methyl)chroman-4-yl)benzoic acid hydrochloride]
50 to 200 | CCN(C)C(=O)c1cc([C@@H]2C[C@H](CN[C@H](C)c3cccc4ccccc34)Oc3ccccc32)ccc1C [Example 145, N-Ethyl-N,2-dimethyl-5-((2R,4S)-2-((((R)-1-(naphthalen-1-yl)ethyl)amino)methyl)chroman-4-yl)benzamide hydrochloride]
< 20 | Cc1ccc([C@@H]2C[C@H](CCN[C@H](C)c3cccc4ccccc34)Oc3ccccc32)cc1C(=O)O [Example 124, 2-Methyl-5-((2R,4S)-2-(2-(((R)-1-(naphthalen-1-yl)ethyl)amino)ethyl)chroman-4-yl)benzoic acid hydrochloride]
< 20 | C[C@@H](NC[C@H]1C[C@H](c2ccc(F)c(OCC(=O)O)c2)c2ccccc2O1)c1cccc2ccccc12 [Example 93a, 2-(2-Fluoro-5-((2R,4R)-2-((((R)-1-(naphthalen-1-yl)ethyl)amino)methyl)chroman-4-yl)phenoxy)acetic acid hydrochloride]
20 to 50 | C[C@@H](NC[C@H]1C[C@@H](c2cc(F)c(C(=O)O)c(F)c2)c2ccccc2O1)c1cccc2ccccc12 [Example 101, 2,6-Difluoro-4-((2R,4S)-2-((((R)-1-(naphthalen-1-yl)ethyl)amino)methyl)chroman-4-yl)benzoic acid hydrochloride]
50 to 200 | C[C@@H](NC[C@H]1C[C@H](c2ccc(C(=O)O)cc2)c2ccccc2O1)c1cccc2ccccc12 [Example 98a, 4-((2R,4R)-2-((((R)-1-(Naphthalen-1-yl)ethyl)amino)methyl)chroman-4-yl)benzoic acid hydrochloride]
< 20 | Cc1cc([C@@H]2C[C@H](CN[C@H](C)c3cccc4ccccc34)Oc3ccccc32)ccc1C(=O)O [Example 99b, 2-Methyl-4-((2R,4S)-2-((((R)-1-(naphthalen-1-yl)ethyl)amino)methyl)chroman-4-yl)benzoic acid hydrochloride]
20 to 50 | COc1c(C(=O)O)cccc1[C@H]1C[C@H](CN[C@H](C)c2cccc3ccccc23)Oc2ccccc21 [Example 89a, 2-Methoxy-3-((2R,4S)-2-((((R)-1-(naphthalen-1-yl)ethyl)amino)methyl)chroman-4-yl)benzoic acid hydrochloride]
< 20 | Cc1ccc([C@@H]2C[C@H](CN[C@H](C)c3cccc4ccccc34)Oc3ccccc32)cc1C(=O)O [Example 84b, 2-Methyl-5-((2R,4S)-2-((((R)-1-(naphthalen-1-yl)ethyl)amino)methyl)chroman-4-yl)benzoic acid hydrochloride]
20 to 50 | C[C@@H](NC[C@H]1C[C@@H](c2cccc(OC(C)(C)C(=O)O)c2)c2ccccc2O1)c1cccc2ccccc12 [Example 97, 2-Methyl-2-(3-((2R,4S)-2-((((R)-1-(naphthalen-1-yl)ethyl)amino)methyl)chroman-4-yl)phenoxy)propanoic acid hydrochloride]
50 to 200 | Cc1c(C(=O)O)ccc(F)c1[C@H]1C[C@H](CN[C@H](C)c2cccc3ccccc23)Oc2ccccc21 [Example 81a, 4-Fluoro-2-methyl-3-((2R,4S)-2-((((R)-1-(naphthalen-1-yl)ethyl)amino)methyl)chroman-4-yl)benzoic acid hydrochloride]
50 to 200 | COc1cc([C@@H](C)NC[C@H]2C[C@@H](c3ccc(C(=O)O)c(C)c3)c3ccccc3O2)ccc1F [Example 114, 4-((2R,4S)-2-((((R)-1-(4-Fluoro-3-methoxyphenyl)ethyl)amino)methyl)chroman-4-yl)-2-methylbenzoic acid hydrochloride]
< 20 | COc1cc(C(=O)O)ccc1[C@@H]1C[C@H](CN[C@H](C)c2cccc3ccccc23)Oc2ccccc21 [Example 102b, 3-Methoxy-4-((2R,4S)-2-((((R)-1-(naphthalen-1-yl)ethyl)amino)methyl)chroman-4-yl)benzoic acid hydrochloride]
20 to 50 | CCN(CC)C(=O)c1cc([C@@H]2C[C@H](CN[C@H](C)c3cccc4ccccc34)Oc3ccccc32)ccc1C [Example 146, N,N-Diethyl-2-methyl-5-((2R,4S)-2-((((R)-1-(naphthalen-1-yl)ethyl)amino)methyl)chroman-4-yl)benzamide hydrochloride]
